Structures can show the parent of a compound that is named as a salt. Where two headings read alike, the source gives them in different places.

Usually EC50 stands for the concentration needed to bring the measured effect to its halfway point. Broadly, the IC50 is the concentration at which inhibition is half-maximal. A high value points to weaker potency.

In test [1] the target is T1, STAT6 (Homo sapiens, UniProt P42226).
T1 construct: stably transfected HaCaT keratinocyte cell line, which expresses NanoLuc luciferase reporter gene under the transcriptional control of the STAT6 responsive promoter; endogenous in cells; host or cells: HaCaT keratinocyte reporter cell line (stably transfected with a NanoLuc reporter)
T1 sequence (P42226 1-847): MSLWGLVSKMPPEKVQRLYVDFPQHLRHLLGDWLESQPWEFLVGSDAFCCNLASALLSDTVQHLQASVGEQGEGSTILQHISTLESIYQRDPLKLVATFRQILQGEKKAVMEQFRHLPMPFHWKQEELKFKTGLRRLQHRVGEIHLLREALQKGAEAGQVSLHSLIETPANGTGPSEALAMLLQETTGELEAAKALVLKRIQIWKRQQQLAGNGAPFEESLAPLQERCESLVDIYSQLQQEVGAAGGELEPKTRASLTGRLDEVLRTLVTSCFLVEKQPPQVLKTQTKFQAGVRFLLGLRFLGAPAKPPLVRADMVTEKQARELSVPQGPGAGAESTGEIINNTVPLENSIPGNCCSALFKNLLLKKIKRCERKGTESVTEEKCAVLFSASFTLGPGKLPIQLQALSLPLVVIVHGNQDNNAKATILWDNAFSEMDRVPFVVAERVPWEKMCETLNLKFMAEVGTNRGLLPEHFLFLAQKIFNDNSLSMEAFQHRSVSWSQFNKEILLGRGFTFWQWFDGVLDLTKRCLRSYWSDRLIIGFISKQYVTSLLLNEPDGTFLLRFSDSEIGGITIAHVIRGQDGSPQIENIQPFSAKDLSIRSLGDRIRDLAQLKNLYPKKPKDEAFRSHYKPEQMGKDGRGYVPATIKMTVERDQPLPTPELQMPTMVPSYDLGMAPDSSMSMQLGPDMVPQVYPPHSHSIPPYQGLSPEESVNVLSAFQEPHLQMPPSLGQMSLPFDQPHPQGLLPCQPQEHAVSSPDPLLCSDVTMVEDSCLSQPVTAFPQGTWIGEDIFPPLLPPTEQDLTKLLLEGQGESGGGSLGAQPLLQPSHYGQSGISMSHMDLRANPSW
Put plainly: STAT6 Reporter Luciferase Assay (IL-13 stimulated HaCaT keratinocyte NanoLuc reporter cells). It is filed as cell-based. To be noted: read-out: Reporter EC50. The essentials:
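Luminescence from a NanoLuc reporter driven by the STAT6-responsive IL-13Ra2 promoter in HaCaT keratinocytes serves as the read-out. Compounds are given 2 h before a 4 h stimulation with 0.12 nM IL-13.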

The subject of test [2] is CCL17 secretion in peripheral human whole blood. In words: Human Whole Blood (HWB) CCL17 TR-FRET Assay (IL-13 stimulated CCL17 secretion). It is filed as cell-based. The protocol: The IC50 (half-maximal concentration required for inhibition) of compounds for the inhibition of CCL17 secretion in peripheral human whole blood, stimulated through the IL-13-IL-13 receptor/IL-4 receptor pathway was evaluated with a TR-FRET sandwich ELISA CCL17 (TARC) Assay Kit (Bioauxilium).
Test compounds (solubilized and serially diluted in DMSO, in an 11 point, 3-fold dilution series in duplicate) were spotted, 80 nL per well, into a 384 well v-bottom polypropylene plate. Human whole blood was collected from a peripheral vein, 714 units of sodium heparin was added for every 50 mL of blood collected. Sixty μL per well of blood was added to the compound plate. The blood plate was incubated for two hours at 37° C. After two hours, CCL17 production was stimulated with the addition of 20 μL per well of IL13 (R&D Systems) in HBSS with calcium and magnesium, with a final concentration of 10 ng/mL IL13. The plate containing blood, compound, and IL-13 was incubated at 37° C. for 48 hours, to allow for CCL17 production. After 48 hours, the plate was centrifuged at 1,500 revolutions per minute (RPM) for 7 minutes, with no braking. The CCL17 TR-FRET Assay Kit detection reagent was prepared according to kit instructions and 4 μL per well of the antibody cocktail was added to a 384-well white low volume non-binding coated plate (Corning). Sixteen μL of serum from the centrifuged blood plate was transferred to the detection plate containing the TR-FRET antibody cocktail. The plate was centrifuged briefly, then covered and incubated 16 hours at room temperature. The plate was then read on an EnVision 2105 multilabel reader (PerkinElmer) with settings for TR-FRET Ratio=10,000×(fluorescence intensity 665 nm/fluorescence intensity 615 nm).
(In general: TR-FRET usually uses a lanthanide donor and a delayed reading to cut background.)

Where [3] appears, read: IL-13 stimulated HaCaT STAT6 NanoLuc reporter cells.
[4] abbreviates: Homo sapiens, 48 h, human whole blood, IL-13 stimulated.
Setting [5] is: STAT6 NanoLuc luciferase reporter, IL-13 stimulated HaCaT keratinocyte cells.
The mark [6] stands for this setting: inhibition of CCL17 secretion in human whole blood, 10 ng/mL IL13, 48 hours.
The mark [7] stands for this setting: Homo sapiens, 48 h, inhibition of CCL17 secretion in human whole blood, 10 ng/mL IL13, 48 hours.

With `CC(n1nc(C(=O)NCc2ccc(NC(=O)N(C)C)cc2)c2c1[C@@H](C)CN(c1ccc(C(=O)N(C)C)cn1)C2)C(F)(F)F` (mixture of isomers) [Example 262, (S)-5-(5-(dimethylcarbamoyl)pyridin-2-yl)-N-(4-(3,3-dimethylureido)benzyl)-7-methyl-1-((RS)-1,1,1-trifluoropropan-2-yl)-4,5,6,7-tetrahydro-1H-pyrazolo[4,3-c]pyridine-3-carboxamide], the half-maximal effective concentration (EC50) in test [1] (setting [3]) came out at 1 nM. In test [2] (setting [4]), the concentration for half-maximal inhibition (IC50) amounted to 6 nM.
The like results for `COCC(C)n1nc(C(=O)NCc2ccc(NC(=O)N(C)C)cc2)c2c1[C@@H](C)CN(c1ccc(C(=O)N(C)C)cn1)C2` (mixture of isomers) [Example 344, (S)-5-(5-(dimethylcarbamoyl)pyridin-2-yl)-N-(4-(3,3-dimethylureido)benzyl)-1-((RS)-1-methoxypropan-2-yl)-7-methyl-4,5,6,7-tetrahydro-1H-pyrazolo[4,3-c]pyridine-3-carboxamide] were, in that order, 1 nM and 8 nM.
For `CC(n1nc(C(=O)NCc2ccc(NC(=O)N(C)C)cc2)c2c1[C@H](C)CN(c1ccc(C(=O)N(C)C)cn1)C2)C(F)(F)F` (mixture of isomers) [Example 553, (R)-5-(5-(dimethylcarbamoyl)pyridin-2-yl)-N-(4-(3,3-dimethylureido)benzyl)-7-methyl-1-((RS)-1,1,1-trifluoropropan-2-yl)-4,5,6,7-tetrahydro-1H-pyrazolo[4,3-c]pyridine-3-carboxamide], the concentration for a half-maximal effect (EC50) in test [1] (setting [3]) came out at 4 nM. The IC50 in test [2] (Homo sapiens, 48 h, human whole blood, 10 ng/mL IL13, 48 hours) amounted to 18 nM.
Take `CC(C)n1nc(C(=O)NCc2ccc(NC(=O)N3C[C@H]4CC[C@@H](C3)N4)c(F)c2)c2c1[C@@H](C)CN(c1ccc(C(=O)N(C)C)cc1)C2` (mixture of isomers) [Example 573, (S)-N-(4-((1RS,5SR)-3,8-diazabicyclo[3.2.1]octane-3-carboxamido)-3-fluorobenzyl)-5-(4-(dimethylcarbamoyl)phenyl)-1-isopropyl-7-methyl-4,5,6,7-tetrahydro-1H-pyrazolo[4,3-c]pyridine-3-carboxamide]: in test [1] (setting [3]), the EC50 stood at 1 nM. For the same molecule, it took 11 nM to reach half-maximal inhibition in test [2] (human whole blood, 10 ng/mL IL13, 48 hours) (IC50).
`CC1CN(c2ccc(C(=O)N(C)C)cn2)Cc2c(C(=O)NCc3ccc(NC(=O)N(C)C)cc3)nn(C)c21` (racemic) [Example 6, rac-(R)-5-(5-(Dimethylcarbamoyl)pyridin-2-yl)-N-(4-(3,3-dimethylureido)benzyl)-1,7-dimethyl-4,5,6,7-tetrahydro-1H-pyrazolo[4,3-c]pyridine-3-carboxamide]: the 50% effective concentration (EC50) in test [1] (setting [5]) stood at 4 nM. In test [2] (setting [6]), this molecule returned an IC50 of 25 nM.
On the same counts, the results for `Cc1nc(C(=O)NCc2ccc(NC(=O)N(C)C)cc2)c2n1C(C)CN(c1ccc(C(=O)N(C)C)cn1)C2` (racemic) [Example 9, rac-(R)-7-(5-(Dimethylcarbamoyl)pyridin-2-yl)-N-(4-(3,3-dimethylureido)benzyl)-3,5-dimethyl-5,6,7,8-tetrahydroimidazo[1,5-a]pyrazine-1-carboxamide formate] are 15 nM and 27 nM.
As for `CN(C)C(=O)Nc1ccc(CNC(=O)c2nn(C)c3c2CC(c2ccc(C(=O)N(C)C)cc2)CC3)cc1` (racemic) [Example 26, rac-(R)-5-(4-(Dimethylcarbamoyl)phenyl)-N-(4-(3,3-dimethylureido)benzyl)-1-methyl-4,5,6,7-tetrahydro-1H-indazole-3-carboxamide], in test [1] (setting [5]), the half-maximal effective concentration (EC50) came to 69 nM. In test [2] (setting [7]), this molecule yielded an IC50 of 561 nM.
Turning to `CC1Cc2c(c(C(=O)NCc3ccc(NC(=O)N(C)C)cc3)nn2C)CN1c1ccc(C(=O)N(C)C)cn1` (racemic) [Example 49, rac-(R)-5-(5-(dimethylcarbamoyl)pyridin-2-yl)-N-(4-(3,3-dimethylureido)benzyl)-1,6-dimethyl-4,5,6,7-tetrahydro-1H-pyrazolo[4,3-c]pyridine-3-carboxamide], the EC50 in test [1] (setting [5]) was found to be 9 nM. For the same molecule, in test [2] (setting [7]), the half-maximal inhibitory concentration (IC50) amounted to 39 nM.
On the same counts, the results for `CC1c2c(C(=O)NCc3ccc(NC(=O)N(C)C)cc3)nn(C)c2CCN1c1ccc(C(=O)N(C)C)cn1` (racemic) [Example 55, rac-(R)-5-(5-(dimethylcarbamoyl)pyridin-2-yl)-N-(4-(3,3-dimethylureido)benzyl)-1,4-dimethyl-4,5,6,7-tetrahydro-1H-pyrazolo[4,3-c]pyridine-3-carboxamide] are 10 nM and 12 nM.
On to `CCC1CN(c2ccc(C(=O)N(C)C)cn2)Cc2c(C(=O)NCc3ccc(NC(=O)N(C)C)cc3)n[nH]c21` (racemic) [Example 57, rac-(R)-5-(5-(dimethylcarbamoyl)pyridin-2-yl)-N-(4-(3,3-dimethylureido)benzyl)-7-ethyl-4,5,6,7-tetrahydro-1H-pyrazolo[4,3-c]pyridine-3-carboxamide], for which, in test [1] (setting [5]), the half-maximal effective concentration (EC50) was found to be 98 nM. In test [2] (setting [7]), this molecule displayed an IC50 of 182 nM.
On the same counts, the results for `CC1CN(c2ccc(-c3nccn3C)cn2)Cc2c(C(=O)NCc3ccc(NC(=O)N(C)C)cc3)nn(C)c21` (racemic) [Example 59, rac-(R)-N-(4-(3,3-dimethylureido)benzyl)-1,7-dimethyl-5-(5-(1-methyl-1H-imidazol-2-yl)pyridin-2-yl)-4,5,6,7-tetrahydro-1H-pyrazolo[4,3-c]pyridine-3-carboxamide] are 3 nM and 27 nM.
On the same counts, the results for `CC(C1CC1)n1nc(C(=O)NCc2ccc(NC(=O)N(C)C)cc2)c2c1CCN(c1ccc(C(=O)N(C)C)cn1)C2` (racemic) [Example 62, rac-(R)-1-(1-cyclopropylethyl)-5-(5-(dimethylcarbamoyl)pyridin-2-yl)-N-(4-(3,3-dimethylureido)benzyl)-4,5,6,7-tetrahydro-1H-pyrazolo[4,3-c]pyridine-3-carboxamide] are 9 nM and 66 nM.
For `CN(C)C(=O)Nc1ccc(CNC(=O)c2nn(C)c3c2[C@H]2CCC[C@@H](C3)N2c2ccc(C(=O)N(C)C)cn2)cc1` (racemic) [Example 68, rac-(4R,8S)-10-(5-(dimethylcarbamoyl)pyridin-2-yl)-N-(4-(3,3-dimethylureido)benzyl)-1-methyl-4,5,6,7,8,9-hexahydro-1H-4,8-epiminocycloocta[c]pyrazole-3-carboxamide], the concentration for a half-maximal effect (EC50) in test [1] (setting [5]) came to 9 nM. In test [2] (setting [6]), this molecule came in with an IC50 of 43 nM.
On to `CCn1nc(C(=O)NCc2ccc(NC(=O)N(C)C)cc2)c2c1C(C)CN(c1ccc(C(=O)N(C)C)cn1)C2` (racemic) [Example 71, rac-(R)-5-(5-(dimethylcarbamoyl)pyridin-2-yl)-N-(4-(3,3-dimethylureido)benzyl)-1-ethyl-7-methyl-4,5,6,7-tetrahydro-1H-pyrazolo[4,3-c]pyridine-3-carboxamide], for which, in test [1] (setting [5]), the EC50 amounted to 2 nM. For the same molecule, the 50% inhibitory concentration (IC50) in test [2] (setting [7]) was determined as 14 nM.

For the origin of these results see US20250320213A1, “Nitrogen-Containing Heterocyclic Compounds” (Pfizer Inc., priority 2024, published 2025).
